The METLIN SMRT retention time set (Domingo-Almenara et al. 2019)

Test: gradient 5% acetonitrile 3 min, to 50% in 2 min, to 85% in 15 min, held 3 min, 100 µL/min
Settings: column: Zorbax Extend-C18 2.1 x 50 mm; eluents: water / acetonitrile, 0.1% formic acid
In short: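 Data were gathered over 3 months by HPLC coupled to a quadrupole time-of-flight mass spectrometer, operated in positive and negative ionization mode. Mixtures of ~100 pure standards ran on a Zorbax Extend-C18 column (2.1 × 50 mm, 1.8 μm) at 100 μL/min, with water and acetonitrile each containing 0.1% formic acid and dead and dwell volumes of 40 μL and 900 μL. Retention time was read from adduct peaks picked by computer and checked manually.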

| SMILES | RP-LC retention time |
| --- | --- |
| O=C(NC1CCN(Cc2ccccc2)CC1)C1CCCN(S(=O)(=O)N2CCOCC2)C1 (stereo not given) | 593 s |
| CCCNC(=O)C1CCN(c2cnc(N3CCN(CC)CC3)nc2)CC1 | 565 s |
| COc1cc(=O)c(C(=O)Nc2cccc(SC)c2)nn1-c1cccc(F)c1 | 805 s |
| Cc1ccc(=O)n(CCNC(=O)c2cc(C)oc2C)n1 | 616 s |
| Cc1cc(C(=O)NCC2Cn3cccc3C(=O)N2C)n(C)n1 (stereo not given) | 600 s |
| CN(C)c1ccc(-c2noc(CCC(=O)N3CCC4(CC3)OCCO4)n2)cc1 | 789 s |
| Cc1ccc2c(c1)C(C)(C)C(=O)N2CC(=O)NCc1cccnc1 | 612 s |
| Fc1ccccc1-c1noc(-c2nc(Cc3ccccc3)no2)n1 | 1160 s |
| Cc1noc(-c2nn(C)c3c2CN(C(=O)C2CCCO2)CC3)n1 (stereo not given) | 600 s |
| O=C(NCc1ccco1)c1scc(-c2ccc(F)cc2)c1-n1cccc1 | 1110 s |
| CCN(CC)C(=O)c1c2c(cn(-c3ccc(C)cc3)c1=O)C(=O)CC(C)(C)C2 | 799 s |
| Cc1cccc(NC(=O)C(=O)NCc2ccccn2)n1 | 565 s |
| CCNC(=O)c1n[nH]c2c1CC(C(C)(C)C)CC2 (stereo not given) | 840 s |
| CC(C)(C)CC(=O)NC1CCN(c2ccc(F)cc2)C1=O (stereo not given) | 755 s |
| CC(=O)N1CC(c2nnc(C(C)C)o2)C2(CCOCC2)C1 (stereo not given) | 571 s |
| CCOC(=O)N1CCN(C(=O)CSc2ccc(-c3ccco3)nn2)CC1 | 661 s |
| COCC(=O)N(C1CCOCC1)C1CCN(S(=O)(=O)c2ccccc2)CC1 | 727 s |
| CCOc1ccccc1C1C(C(=O)OC)=C(C)NC2=C1C(=O)c1ccccc12 (stereo not given) | 887 s |
| CN1c2cc(C(=O)NCc3ccc(F)cc3F)ccc2C(=O)N2CCCCC21 (stereo not given) | 813 s |
| CCn1cc(-c2nc(C(=O)Nc3cc(Cl)ccc3OC)cs2)c2cccnc21 | 1360 s |
| COc1ccccc1CNC(=O)C(=O)NCc1ccsc1 | 796 s |

| SMILES | RP-LC retention time |
| --- | --- |
| Cc1occc1C(=O)N[C@@H]1CN(S(C)(=O)=O)C[C@H]1CN(C)C | 573 s |
| Cc1ccsc1C(=O)Nc1cnc(N2CCCCC2)nc1 | 915 s |
| Cc1cc(Cl)ccc1NC(=O)c1cc2n(n1)CCCC2 | 975 s |
| Cc1ccc(CNC(=O)N(C)CC2CCOC2)cc1 (stereo not given) | 575 s |
| Cc1cccc(-c2nnc(C)c(N3CCOCC3)n2)c1 | 645 s |
| O=C([C@@H]1C[C@H](F)CN1C(=O)Nc1ccc(Br)cc1)N1CCCCC1 | 725 s |
| Cc1cc(N2CCN(S(=O)(=O)c3ccc(Cl)c(Cl)c3)CC2)nc(NC2CCCCC2)n1 | 922 s |
| COc1ncccc1CNC(=O)CCc1c(C)noc1C | 556 s |
| O=C(Cn1cc(-c2nc(-c3cccs3)no2)ccc1=O)c1ccc2c(c1)OCO2 | 850 s |
| O=C(CN1C(=O)CCS(=O)(=O)c2ccccc21)Nc1ccc(Cl)cc1 | 797 s |
| CC(NC(=O)Cn1cnc(-c2noc(-c3ccncc3)n2)c1)c1ccccc1 (stereo not given) | 678 s |
| O=C(CCSc1ccccc1)NCC(c1ccco1)N1CCOCC1 (stereo not given) | 574 s |
| COc1ccc(-c2noc(-c3nn(-c4cccc(F)c4)ccc3=O)n2)cc1OC | 804 s |
| Cc1nn(-c2ccccc2)c2c1N(CCCC(=O)NCCC(C)C)C(=O)CS2 | 657 s |
| CNC(=O)C1CN(S(=O)(=O)c2cccc(F)c2)CC12CCCC2 (stereo not given) | 778 s |
| COc1ccc(NC(=O)N2C[C@@H]3C[C@H](NS(C)(=O)=O)[C@H]2C3)c(C)c1 | 652 s |
| Cc1sc(-c2ccn[nH]2)cc1NC(=O)c1ccc2nc[nH]c2c1 | 670 s |
| CC(=O)Oc1cc(C(C)C)c(OCCN(C)C)cc1C | 708 s |
| Cc1oc2ccn(Cc3ccc(F)cc3)c(=O)c2c1C(=O)NCc1ccco1 | 975 s |
| Cc1[nH]c(C(=O)N2CCC(CC(=O)N3CCC(C)CC3)CC2)c(C)c1C(=O)OC(C)C | 849 s |
| CC(C)NC(=O)Cn1cnc2ccccc2c1=O | 609 s |

Other lines, results leading:

| RP-LC retention time | SMILES |
| --- | --- |
| 1090 s | CC(C)Oc1ccc(-c2noc(Cn3c(=O)n(-c4ccccc4F)c(=O)c4sccc43)n2)cc1 |
| 820 s | COC(=O)c1ncn2c1C(=O)N(CCCc1ccccc1)C(C)(C(=O)NC1CCCCC1)C2 (stereo not given) |
| 566 s | COc1ccc(CN2CCC(NC(=O)c3ccc(C#N)cc3)C2)cn1 (stereo not given) |
| 817 s | CCc1nnc(-c2cn(CC(=O)Nc3ccc4c(c3)OCCO4)c3ccccc23)o1 |
| 975 s | COc1ccc(-c2cc3nn(CC(=O)Nc4cc(C)ccc4C)c(=O)n3c(C)n2)cc1 |
| 1010 s | CCOC(=O)COC(=O)c1cn(-c2cccc(OC)c2)c(=O)c2ccccc12 |
| 813 s | COc1ccc(CNC(=O)Cn2c(C(F)(F)F)nc3cc4c(cc32)OCCO4)cc1 |
| 1010 s | O=C(Nc1ccc2c(c1)OCCO2)N1CCN(c2nc3ccccc3n(Cc3ccccc3)c2=O)CC1 |
| 1080 s | O=S(=O)(c1ccccc1Cl)N1CCc2nc(-c3ccccc3)ncc2C1 |
| 921 s | CCS(=O)(=O)N1CCN(Cc2ccc(OC)nc2)CC1 |
| 684 s | COc1ccc(-c2nc3ccc(C)cn3c2Nc2ccc3c(c2)OCO3)cc1 |
| 790 s | CCOC(=O)C1CCN(c2nc(-c3ccc(OC)cc3)nc3ccccc23)CC1 |
| 678 s | COc1ccc(NC(=O)N2CCC3(C2)C(=O)Nc2ccccc23)c(OC)c1 (stereo not given) |
| 1150 s | Cc1nc(-c2ccc(-c3noc(CN4C(=O)COc5ccc(Cl)cc54)n3)cc2)cs1 |
| 790 s | COc1ccc2nc(C(=O)N(C)Cc3ccccc3)cn2n1 |
| 899 s | O=C(c1cn2cc(Cl)ccc2n1)N1CCN(c2ccc(Cl)cc2)CC1 |
| 877 s | COc1ccc(NS(=O)(=O)c2ccc(-c3c(C)noc3C)cc2)cc1 |
| 1070 s | O=C(CN1C(=O)C(C(=O)N2CCCC2)Sc2ccccc21)Nc1ccc(Cl)cc1 (stereo not given) |
| 1050 s | COc1ccc(CN2C=C(C(=O)OCc3noc(-c4cccc(F)c4)n3)C(C)=NS2(=O)=O)cc1 |
| 828 s | COc1ccc(-c2nc(NCCCN3CCN(C)CC3)c3ccccc3n2)cc1 |
| 683 s | Cc1nn(-c2ccc(-c3ccccc3)nn2)c(C)c1S(=O)(=O)N1CCN(C(C)C)CC1 |
| 568 s | OC1CCC12CCN(Cc1cn[nH]c1-c1ccccc1)CC2 (stereo not given) |
| 976 s | COc1ccc(-c2ncc3c(n2)CCN(S(=O)(=O)Cc2ccccc2)C3)cc1 |
| 771 s | CCCCNC(=O)CN1C(=O)CCn2nc(-c3cn(C)c4ccccc34)cc21 |

| RP-LC retention time | SMILES |
| --- | --- |
| 717 s | COc1cccc(-n2cc(C(=O)O)c3c2C(c2ccc(OC)c(OC)c2)CC(=O)N3)c1 (stereo not given) |
| 633 s | O=S(=O)(c1cccc2nsnc12)N1CCC(Cc2nc(-c3cccnc3)n[nH]2)C1 (stereo not given) |
| 1110 s | CCCCn1c(=O)c2ccccc2n(Cc2nc(-c3ccc(Cl)c(F)c3)no2)c1=O |
| 645 s | Cc1ccc2nc(N3CCN(C)CC3)c(-c3noc(C)n3)cc2c1 |
| 562 s | O=C(NCCCN1CCCC1)c1cc(-c2cccnc2)nc2ccccc12 |
| 671 s | COc1ccc2nccc(/C=C/c3ccnc4ccc(OC)cc34)c2c1 |
| 890 s | COc1cccc(CCC(=O)Nc2cnn(-c3ncc(N4CCCCC4)cn3)c2)c1 |
| 672 s | Cc1c(-c2ccnc(N3CCN(C)CC3)n2)cnc2nc(SCc3ccccc3)nn12 |
| 689 s | O=C(Nc1ccc(N2CCN(c3ccccc3)C2=O)nc1)c1cccnc1 |
| 652 s | CCCNC(=O)C1CCCN(c2ccc(SCC(=O)NCc3ccc(F)cc3)nn2)C1 (stereo not given) |
| 730 s | CCOC(=O)COc1cc(-c2ccc(F)cc2)nc2ccc(NC(=O)COC)cc12 |
| 673 s | CCCCC(=O)Nc1ccc2nc(N3CCN(c4ccc(OC)cc4)CC3)cc(C(=O)O)c2c1 |
| 695 s | COc1ccccc1NC(=O)N1CCN(c2cc(C)nc(N3CCCCC3)n2)CC1 |
| 1060 s | COc1ccc(C(C)NC(=O)C2CCN(c3nccnc3Sc3ccc(C)cc3)CC2)cc1 (stereo not given) |
| 858 s | CN(CCc1noc(-c2ccccc2)n1)C(=O)Nc1ccc(F)cc1F |
| 700 s | Fc1ccc(-c2noc(-c3nnc(NCCCN4CCOCC4)c4ccccc34)n2)cc1 |
| 987 s | CCc1noc(-c2cc(=O)n(CC(=O)Nc3ccccc3Cl)c3ccccc23)n1 |
| 1310 s | Cc1ccc(-c2noc(CN3C(=O)COc4ccc(C(C)(C)C)cc43)n2)cc1 |
| 539 s | CCC(=O)NCc1nc2c(n1C)CN(S(=O)(=O)Cc1ccc(Cl)cc1)CC2 |
| 1090 s | CCOc1ccc(-n2c(=O)c3sccc3n(Cc3nc(-c4ccc(C)cc4)no3)c2=O)cc1 |
| 1180 s | O=S(=O)(c1cccc(Cl)c1)N1CCc2nc(-c3ccc(F)cc3)ncc2C1 |
| 897 s | COC(=O)c1cc(Cl)ccc1NC(=O)COc1nc(C)nc2ccccc12 |
| 860 s | Cc1ccc(CNC(=O)NC2CCN(c3nc4cccnc4n(C)c3=O)CC2)cc1 |
| 1300 s | CCc1ccc(S(=O)(=O)N2CCCC2c2nc(-c3cccc(Cl)c3)no2)cc1 (stereo not given) |
